Reference: patent US9447083B2, “N-acylhydrazone derivatives for selective T cell inhibitor and anti-lymphoid malignancy drug” (CHONG KUN DANG PHARMACEUTICAL CORP., priority 2012, dated 2016)

Assays:
[1] = test system: Jurkat T cells; assay: Pro-apoptotic activity on Jurkat T cells (FITC-Annexin V / 7-AAD flow cytometry); assay type: cell-based; conditions: Homo sapiens, 72 hours, cells stained with FITC-Annexin V and 7-AAD among total cells, read-out: Cell Apoptosis Effect to Jurkat T Cell (% in 5 μM)
Procedure, shortened: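 Jurkat cells at 1.5×10^5 cells/mL in RPMI/10% FBS treated with compounds at […] or 5 μM final for 72 h at 37° C, vehicle containing 1% DMSO. Stained with FITC-Annexin V and 7-AAD for 15 min at room temperature in pH 7.4 Hepes binding buffer. Apoptosis = % double-stained cells by flow cytometry.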

[2] = test system: alloantigen-specific T cells; assay: Inhibitory effect against alloantigen-specific T cells in vitro (mixed lymphocyte reaction, CFSE / 7-AAD); assay type: cell-based, mouse; conditions: for Apoptosis % (mean ± SD) Primary Response / Apoptosis % (mean ± SD) Secondary Response: 72 hours; for Apoptosis % (mean ± SD) Primary Response: vehicle 30.91 ± 3.80; for Apoptosis % (mean ± SD) Secondary Response: vehicle 39.10 ± 4.10
Experimental: The lymph nodes and spleens were aseptically collected from normal C57BL/6 mice (8-12 week old, female, 20±2 g) and were ground with adding of RPMI medium. Then, the ground tissues were passed through a cell strainer (BD Falcon) to make single cell suspensions. The single cell suspension of the spleen was centrifuged at 1200 rpm for 5 minutes. The supernatant was removed, and then 1 mL of ammonium chloride/potassium bicarbonate (ACK) lysis buffer (0.15 M NH4Cl, 1 mM KHCO3, 0.1 mM Na2EDTA) was added to the cells, which were then vortexed for 1 minute and washed with RPMI medium. […] The incubated cell suspension was added with 10 mL of MACS buffer, centrifuged for 5 minutes, washed, and then re-suspended in 2 mL of MACS buffer. The suspended cells were placed in the autoMACS Pro Separator (Miltenyi Biotec), and T cells bound to CD90.2 microbeads were isolated. The isolated T cells were washed with phosphate buffered saline (PBS), and then re-suspended in PBS at a concentration of 1×10^8 cells/mL. Normal BALB/c mice (10-12 week old, female, 20-23 g) were irradiated with 950 rad of γ radiation using IBL 437C irradiator (CIS bio international), and then 100 μL of the above-prepared T cell suspension of C57BL/6 mice were injected into the tail vein of the BALB/c mice. At 3 days after the cell injection, the mice were sacrificed, and the spleens were obtained. An erythrocyte-free single cell suspension was made from the obtained spleens in the same manner as described above, and donor T cells were separated from the spleen cell suspension using the autoMACS Pro Separator, thereby preparing secondary responder cells. Meanwhile, T cells were isolated from normal C57BL/6 mice in the same manner as described above, thereby preparing primary responder cells. Each of the primary and secondary responder cells were re-suspended in 1 mL of 1% FBS-containing PBS, and treated with 3 μM of carboxyfluorescein diacetate succinimidyl ester (CFSE, Invitrogen), and then allowed to react at room temperature for 4 minutes. To stop the reaction, cold-stored 5% FBS-containing PBS was added to the cell suspension, followed by washing. The washed cells were re-suspended in 10% FBS-containing RPMI medium at a concentration of 2×10^6/mL. The spleens of normal BALB/c mice (8-12 week old, female, 20±2 g) were aseptically collected. The erythrocyte-free spleen cells were prepared in the same manner as described above, and then re-suspended in 1 mL of PBS. 0.5 mg/mL of Mitomycin-C(Sigma) was added to the suspension at a concentration of 0.5 μg/mL, and the cells were incubated at 37° C. for 20 minutes, and then washed three times with an excessive amount of PBS. The washed cells were re-suspended in 10% FBS-containing RPMI medium at a concentration of 4×10^6 cells/mL, thereby preparing stimulator cells. The primary and secondary responder cells were mixed with the stimulator cells at a ratio of 1:1 separately, and 200 μL of each cell mixtures was dispensed into each well of a round bottom 96-well plate (Costar). Then, the cells were treated with 10 μL of Compound 229 diluted in RPMI medium at various concentrations, and incubated in a 5% CO2 incubator at 37° C. for 72 hours. In a vehicle control group, the cells were 10 μL of 0.2% DMSO-containing RPMI medium. The incubated cells were placed into 5-mL FACS tubes and washed with 1 mL of fluorescence activated cell sorting (FACS) buffer (1% FBS and 0.1% sodium azaide in PBS). The washed cells were re-suspended in 0.1 mL of FACS buffer, and then treated with 1 μg of mouse immunoglobulin G (IgG, e-Biosciences) in order to prevent the non-specific binding of antibody, followed by incubation at 4° C. for 15 minutes. Then, the cells were stained with 0.5 μg of phycoerythrin-conjugated anti-mouse H-2K^b mAb (e-Biosciences) and stained at 4° C. for 30 minutes. After the staining, the cells were washed twice with 1 mL of FACS buffer, re-suspended in 0.1 mL of FACS buffer, stained with 7-AAD at room temperature for 5 minutes. […]

Cc1cc(C)c(OCC(=O)N/N=C/c2ccc3cc[nH]c3c2)c(C2CCOC2)c1 (stereo not shown) [Compound 229, (E)-N′-((1H-indol-6-yl)methylene)-2-(2,4-dimethyl-6-(tetrahydrofuran-3-yl)phenoxy)acetohydrazide]
cytotoxicity at 5 µM [1]: 100% | Apoptosis % (mean ± SD) Primary Response ([2]; 0.125 μM, 7-AAD): 28.42 ± 5.31% | Apoptosis % (mean ± SD) Secondary Response ([2]; 0.125 μM, 7-AAD): 41.40 ± 4.35% | increase of apoptosis compared to the vehicle control group, secondary response ([2]; 0.25 μM or higher, 7-AAD): 21-42% | Apoptosis % (mean ± SD) Primary Response ([2]; 0.25 μM, 7-AAD): 31.20 ± 4.26% | Apoptosis % (mean ± SD) Secondary Response ([2]; 0.25 μM, 7-AAD): 60.27 ± 6.10 % | increase of apoptosis compared to the vehicle control group, primary response ([2]; 0.5 μM or higher, 7-AAD): 14-19% | ratio of T cells (CFSE low) that proliferated in response to the alloantigen, of the total T cells ([2]; 0.5 μM or higher, vehicle control 50%): ≤ 3% | Apoptosis % (mean ± SD) Primary Response ([2]; 0.5 μM, 7-AAD): 45.01 ± 5.48 % | Apoptosis % (mean ± SD) Secondary Response ([2]; 0.5 μM, 7-AAD): 81.70 ± 5.62 % | Apoptosis % (mean ± SD) Primary Response ([2]; 1 μM, 7-AAD): 50.37 ± 6.19 % | Apoptosis % (mean ± SD) Secondary Response ([2]; 1 μM, 7-AAD): 80.37 ± 7.16 % | proliferation of the alloantigen-specific T cells, secondary response ([2]; T cells activated primarily by the alloantigen in vivo, reacted with the same antigen in vitro): effectively inhibited
